Experimental data reported in publication PMC11966596, “Perturbation-Modulated Native Mass Spectrometry Excludes a Nonspecific Drug Target Protein Binder Based on Conformation Stability Change” (Analytical Chemistry, 2025).

What was measured:
[1] = molecular target: T1, lysozyme (Gallus gallus, UniProt P00698); assay: native OPP-ESI-MS, charge state distribution; type: binding; details: 100 μM protein, 1 mM ligand; 25 mM ammonium acetate; OPP solvent 10 mM NH4Ac
T1 construct: gene LYZ

[2] = molecular target: DHFR (recombinant human DHFR) (Homo sapiens, UniProt P00374); details: 5 μM his-tagged protein; 100 mM ammonium acetate; co-purified NADPH present
DHFR (recombinant human DHFR), sequence (P00374 whole entry): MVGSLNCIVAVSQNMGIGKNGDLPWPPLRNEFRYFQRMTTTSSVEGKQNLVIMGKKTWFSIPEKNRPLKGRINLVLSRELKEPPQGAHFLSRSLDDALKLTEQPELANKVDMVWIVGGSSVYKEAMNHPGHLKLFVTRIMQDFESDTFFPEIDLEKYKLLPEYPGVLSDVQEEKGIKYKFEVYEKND

T1 sequence (P00698 19-147): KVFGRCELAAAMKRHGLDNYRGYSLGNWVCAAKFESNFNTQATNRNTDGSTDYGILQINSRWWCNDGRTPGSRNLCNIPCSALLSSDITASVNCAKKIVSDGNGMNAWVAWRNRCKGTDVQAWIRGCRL

Structure (SMILES)	R (bound/unbound protein ratio) [1]	% binding at 100 μM [2] [%]
CC(=O)N[C@H]1[C@H](O[C@H]2[C@H](O)[C@@H](NC(C)=O)C(O)O[C@@H]2CO)O[C@H](CO)[C@@H](O[C@@H]2O[C@H](CO)[C@@H](O)[C@H](O)[C@H]2NC(C)=O)[C@@H]1O (some centres unmarked) [NTAC]	0.59	–
Nc1nc(N)c2nc(CNc3ccc(C(=O)N[C@@H](CCC(=O)O)C(=O)O)cc3)cnc2n1 [aminopterin]	–	100
